Results from patent US20050063956A1, “Method and device for attracting insects” (Colorado State University Research Foundation, priority 1998, published 2005).
Entries after “also recorded” stand apart in the source; their conditions may differ.

System: Reticulitermes tibialis
Assay: T-tube choice-test behavioral bioassay with CO2
Type: in vivo
Protocol: Behavioral bioassay apparatus: The choice-test bioassay apparatus was constructed from a glass T-tube (5 mm inside diameter, 5 mm stem, with each branch 4.5 cm long). Each branch of the ‘T’ was bent downward (2.5 cm from the junction of the ‘T’) at a 45° angle to form a pitfall trap. A 5 mm NMR cap (cat. no. 100-0050, Drummond Scientific, Broomall, Pa.) with a 1 mm pinhole in it was firmly pushed over the end of each bent branch. A 25 cm length of Teflon tubing (0.8 mm inside diameter) was inserted 3 mm into the hole in each NMR cap and the other end of the tubing was connected to a 35 ml polyethylene syringe (cat. no. 106-0490, Sherwood Medical, St. Louis, Mo.). The two 35-ml syringes were connected to a syringe pump which was adjusted to provide an airflow of 1 ml per min into each choice arm of the bioassay apparatus.
Mixtures of CO2 and ambient air were tested to determine the termite response to a range of CO2 concentrations. […] The CO2 concentration of the syringes was determined by using GC-MS-SIM analysis (see below) before each bioassay. […]
Procedure: For bioassays, termite workers were collected from plastic tubs by using a camel's hair brush and were placed into a holding container constructed from a 3 cm length of Teflon tubing (8 mm inside diameter). […] Bioassays were conducted for 15 min, after which the number of termites in each pitfall was recorded. […]

For O=C=O [CO2, carbon dioxide], the “termite choice, CO2 side versus ambient air control side” value (5 mmol/mol CO2 versus ambient air, 15 min) was “significantly greater than the number that moved to the control side; also recorded: chose the mmol/mol CO2 side significantly more often; also recorded: Significantly more termites (p<0.05) were attracted to the side containing 5 mmol/mol CO2 than to the control side” and the “CO2 concentration of best attraction” value (in vivo) was 5 mmol per mol.
